“And” between values parts separate entries of the source, which are not always exact repeats. Identical values can stand only once. Bridge positions count the residues as written; N and C are the ends. Square brackets hold non-standard residues; d marks the D form. Triazole bridges read from a SMILES are 1,4-linked. Peptide text beside a SMILES is read from it. Orn(N3) = [N-]=[N+]=NCCC[C@H](N)C(=O)O; Cit = NC(=O)NCCC[C@H](N)C(=O)O; Pra = C#CC[C@H](N)C(=O)O
Tests used:
[1] = biological target: rat α9α10 nAChR (Rattus norvegicus, UniProt P43144+Q9JLB5); test: cell-based; type: cell-based; conditions: for IC50: α9α10 nAChR IC50 (nM) Rat
[2] = biological target: human α9α10 nAChR (Homo sapiens, UniProt Q9GZZ6+Q9UGM1); test: cell-based; type: cell-based
[3] = rat, in vivo, 1 mg/kg, 1 h
[4] = tested on: oxaliplatin-induced peripheral neuropathy; design: species or system Sprague Dawley rats; conditions: in vivo
[5] = 24 h
[6] = in vivo; conditions: male, Sprague Dawley, rat, sc, 1 mg/kg
[7] = biological target: α7 nAChR (Homo sapiens, UniProt P36544); conditions: read-out: Partial inhibition of the α7 nAChR
[8] = tested on: spared nerve injury; design: species or system rats; conditions: rat, in vivo, 0.5 mg/kg
[9] = tested on: 88 receptors, transporters, enzymes and kinases
[10] = tested on: α9α10 nAChR; conditions: cited from earlier work

rat α9α10 nAChR, sequence (P43144 26-479 limits assumed): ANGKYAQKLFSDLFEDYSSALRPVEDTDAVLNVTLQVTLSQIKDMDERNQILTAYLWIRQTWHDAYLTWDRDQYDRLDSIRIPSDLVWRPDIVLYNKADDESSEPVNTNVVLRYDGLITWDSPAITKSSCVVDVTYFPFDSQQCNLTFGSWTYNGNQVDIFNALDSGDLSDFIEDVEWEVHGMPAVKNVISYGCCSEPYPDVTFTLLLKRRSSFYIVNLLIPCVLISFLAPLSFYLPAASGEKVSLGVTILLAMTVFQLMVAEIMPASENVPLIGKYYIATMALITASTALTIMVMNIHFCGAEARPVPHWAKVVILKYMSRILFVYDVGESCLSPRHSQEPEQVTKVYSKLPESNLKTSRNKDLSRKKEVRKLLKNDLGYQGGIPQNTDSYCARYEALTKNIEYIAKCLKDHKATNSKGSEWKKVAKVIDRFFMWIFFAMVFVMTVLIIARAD
rat α9α10 nAChR, sequence (Q9JLB5 25-447 limits assumed): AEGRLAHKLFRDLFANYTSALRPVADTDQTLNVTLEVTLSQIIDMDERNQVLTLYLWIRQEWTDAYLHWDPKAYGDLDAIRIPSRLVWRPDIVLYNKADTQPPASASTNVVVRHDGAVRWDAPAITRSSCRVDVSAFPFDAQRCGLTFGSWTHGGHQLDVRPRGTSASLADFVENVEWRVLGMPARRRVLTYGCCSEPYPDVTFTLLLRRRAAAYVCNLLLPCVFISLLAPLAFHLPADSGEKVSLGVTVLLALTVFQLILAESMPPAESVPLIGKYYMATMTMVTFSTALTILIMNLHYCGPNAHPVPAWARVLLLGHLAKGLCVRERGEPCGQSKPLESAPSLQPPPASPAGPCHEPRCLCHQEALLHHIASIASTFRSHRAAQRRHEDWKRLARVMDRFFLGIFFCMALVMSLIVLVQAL
human α9α10 nAChR, sequence (Q9UGM1 26-479 limits assumed): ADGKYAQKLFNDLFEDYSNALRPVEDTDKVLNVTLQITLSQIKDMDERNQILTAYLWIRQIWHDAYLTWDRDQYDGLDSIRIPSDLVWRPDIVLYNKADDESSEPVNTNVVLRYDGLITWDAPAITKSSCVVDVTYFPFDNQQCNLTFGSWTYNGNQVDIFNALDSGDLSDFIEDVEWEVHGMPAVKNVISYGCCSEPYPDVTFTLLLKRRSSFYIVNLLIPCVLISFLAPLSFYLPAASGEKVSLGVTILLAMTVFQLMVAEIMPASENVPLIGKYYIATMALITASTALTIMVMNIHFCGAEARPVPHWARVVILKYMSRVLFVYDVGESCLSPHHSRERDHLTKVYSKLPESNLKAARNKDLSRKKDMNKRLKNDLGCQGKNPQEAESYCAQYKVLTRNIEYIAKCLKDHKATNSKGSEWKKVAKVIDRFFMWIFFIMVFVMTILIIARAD
human α9α10 nAChR, sequence (Q9GZZ6 25-450 limits assumed): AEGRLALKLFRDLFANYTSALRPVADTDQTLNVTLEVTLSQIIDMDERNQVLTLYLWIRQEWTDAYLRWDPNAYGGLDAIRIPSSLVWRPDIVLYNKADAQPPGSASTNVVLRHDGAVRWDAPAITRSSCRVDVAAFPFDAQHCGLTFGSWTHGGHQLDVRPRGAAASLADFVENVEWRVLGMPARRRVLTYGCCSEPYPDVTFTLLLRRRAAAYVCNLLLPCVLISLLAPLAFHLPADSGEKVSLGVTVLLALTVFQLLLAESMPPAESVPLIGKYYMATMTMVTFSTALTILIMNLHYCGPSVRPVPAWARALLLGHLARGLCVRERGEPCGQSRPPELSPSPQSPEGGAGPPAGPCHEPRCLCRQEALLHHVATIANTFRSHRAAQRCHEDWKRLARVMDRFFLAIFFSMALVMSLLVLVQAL
α7 nAChR, sequence (P36544 23-502 limits assumed): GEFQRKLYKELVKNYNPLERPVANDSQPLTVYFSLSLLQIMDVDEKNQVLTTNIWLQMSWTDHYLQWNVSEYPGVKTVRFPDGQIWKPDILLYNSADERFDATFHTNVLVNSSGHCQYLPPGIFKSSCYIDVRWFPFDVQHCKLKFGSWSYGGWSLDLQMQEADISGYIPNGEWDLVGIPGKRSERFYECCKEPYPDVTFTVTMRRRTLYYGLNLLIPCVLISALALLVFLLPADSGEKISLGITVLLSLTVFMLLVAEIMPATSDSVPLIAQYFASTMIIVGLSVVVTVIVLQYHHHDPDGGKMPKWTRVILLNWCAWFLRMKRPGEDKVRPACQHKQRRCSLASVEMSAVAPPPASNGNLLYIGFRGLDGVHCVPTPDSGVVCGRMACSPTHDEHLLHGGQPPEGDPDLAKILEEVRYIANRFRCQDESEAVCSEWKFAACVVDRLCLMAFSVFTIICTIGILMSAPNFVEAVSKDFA

## C[C@@H](O)[C@@H]1NC(=O)[C@@H]2CSSC[C@@H](C(=O)N[C@@H](Cc3ccc(O)cc3)C(N)=O)NC(=O)[C@H](CCC(N)=O)NC(=O)[C@H](Cc3ccc(O)c(I)c3)NC(=O)[C@H](CCCNC(N)=O)NC(=O)[C@H](CSSC[C@H](NC(=O)CN)C(=O)N2)NC(=O)[C@H](CCCNC(=N)N)NC(=O)[C@@H]2CCCN2C(=O)[C@H](CC(=O)O)NC1=O [CSP-4-NH2, reference compound]
[1]
  Activity on the rat α9α10 nAChR (in words): active
  IC50: 0.4 ± 0.2 nM
[2]
  Activity on the human α9α10 nAChR (in words): active
  Block of ACh-evoked currents: > 99%
  IC50: 3.5 ± 1.5 nM
  Percent of 100 μM acetylcholine-induced current remaining in the presence of compound, Mean ± SEM: 0.4 ± 0.11%
[3]
  Recovered peptide from blood remaining in the native form: 40-50%

## C[C@@H](O)[C@@H]1NC(=O)[C@@H]2Cc3cn(nn3)CCC[C@@H](C(=O)N[C@@H](Cc3ccc(O)cc3)C(=O)O)NC(=O)[C@H](CCC(N)=O)NC(=O)[C@H](Cc3c[nH]c4ccccc34)NC(=O)[C@H](CCCNC(N)=O)NC(=O)[C@H](CSSC[C@H](NC(=O)CN)C(=O)N2)NC(=O)[C@H](CCCNC(=N)N)NC(=O)[C@@H]2CCCN2C(=O)[C@H](CC(=O)O)NC1=O [Ia, L-tyrosine, glycyl-L-cysteinyl-L-alanyl-L-threonyl-L-α-aspartyl-L-prolyl-L-arginyl-L-cysteinyl-N5-(aminocarbonyl)-L-ornithyl-L-tryptophyl-L-glutaminyl-L-norvalyl-cyclic (2→8) disulfide-cyclic 3^3,12^5-(1H-1,2,3-triazole-4,1-diyl)] (H-GC[Pra]TDPRC[Cit]WQ[Orn(N3)]Y-OH; disulfide 2-8; triazole 3-12)
[1]
  IC50: 14.3 ± 1.8 nM
[2]
  IC50: 0.7 ± 0.03 nM
[4]
  PD (Rat CIPN) Duration of PD effect: 4 to 24 h
  PD (Rat CIPN) Required dose to reach max efficacy: 0.5 mg/kg
[4]; rat, 0.5 mg/kg
  Duration of significant reduction in mechanical hyperalgesia compared to vehicle: up to 4 h
[5]
  Disulfide rearrangement / stability in plasma and serum (in words): single isolated peak on reverse phase HPLC in rat plasma at 0 h, 8 h and 24 h
[6]
  AUC: 981 ng·h/mL
  AUC(0-t): 981 ng·h/mL
  Cmax: 648 ng/mL
  Tmax: 15 min
  half-life: 30 min

## C[C@@H](O)[C@@H]1NC(=O)[C@@H]2Cc3cn(nn3)CCC[C@@H](C(=O)N[C@@H](Cc3ccc(O)cc3)C(N)=O)NC(=O)[C@H](CCC(N)=O)NC(=O)[C@H](Cc3c[nH]c4ccccc34)NC(=O)[C@H](CCCNC(N)=O)NC(=O)[C@H](CSSC[C@H](NC(=O)CN)C(=O)N2)NC(=O)[C@H](CCCNC(=N)N)NC(=O)[C@@H]2CCCN2C(=O)[C@H](CC(=O)O)NC1=O [Ia′, L-tyrosinamide, glycyl-L-cysteinyl-L-alanyl-L-threonyl-L-α-aspartyl-L-prolyl-L-arginyl-L-cysteinyl-N5-(aminocarbonyl)-L-ornithyl-L-tryptophyl-L-glutaminyl-L-norvalyl-cyclic (2→8)-disulfide-cyclic 3^3,12^5-(1H-1,2,3-triazole-4,1-diyl)] (H-GC[Pra]TDPRC[Cit]WQ[Orn(N3)]Y-NH2; disulfide 2-8; triazole 3-12)
[1]
  IC50: 12.6 nM and 7.7 nM
[2]
  IC50: 26 ± 4 nM
[7]
  inhibition at 10 µM: 52%
[4]; rat, 0.5 mg/kg
  Duration of significant reduction in mechanical hyperalgesia compared to vehicle: up to 24 h
[4]; rat, sc, 0.5 mg/kg
  Mechanical hyperalgesia versus vehicle (in words): statistically significant improvements in mechanical hyperalgesia
[8]
  Duration of significant reduction in mechanical hyperalgesia compared to vehicle: up to 24 h
[8]; sc
  Mechanical hyperalgesia versus vehicle (in words): statistically significant improvement in mechanical hyperalgesia
[9]
  Off-target effects in panel of 88 receptors, transporters, enzymes and kinases: no off-target effects

## N=C(N)NCCC[C@H](NC(=O)[C@@H]1CSSC[C@@H]2NC(=O)[C@@H](NC(=O)CN)CSSC[C@H](NC(=O)[C@H](CCCNC(=N)N)NC(=O)[C@@H]3CCCN3C(=O)[C@H](CC(=O)O)NC(=O)[C@H](CO)NC2=O)C(=O)N[C@@H](CCCNC(=N)N)C(=O)N[C@@H](Cc2ccc(O)cc2)C(=O)N[C@@H](CCCNC(=N)N)C(=O)N1)C(=O)O [RgIA]
[10]
  Lower affinity for the human than the rat α9α10 nAChR: approximately 300 fold

Reference: patent publication US11612661B2 (priority 2019, dated 2023)
